In patent US20180200257A1, “METHODS FOR THE TREATMENT OF INFLAMMATORY DISORDERS” (Galapagos NV, priority 2015, published 2018):

Tested on: subjects with moderately to severely active RA who have an inadequate response to methotrexate (MTX)
Assay: Study 1 (add-on to MTX) - ACR responses (ACR20/50/70)
Assay type: in vivo, human
Text: The terms “ACR20”, “ACR50” and “ACR70” as used herein are scores which indicate how much a patient's rheumatoid arthritis has improved according to criteria set out by the American College of Rheumatology (ACR). The ACR score represents a percentage. An ACR20 score means that a person's RA has improved by 20%, an ACR50 score means it has improved by 50%, and an ACR70 score means it has improved by 70%. Specifically, to qualify for an ACR20 score, a person with RA must have at least 20% fewer tender joints and at least 20% fewer swollen joints. In addition the patient must show a 20% improvement in at least three of the following five areas: the person's overall (global) assessment of his or her own RA, the physician's global assessment of the person's RA, the person's assessment of his or her own pain, the person's assessment of his or her own physical functioning, and the results of an erythrocyte sedimentation rate or C-reactive protein (CRP) blood test (both of which test for inflammation). ACR50 and ACR70 scores use the same criteria but require 50% and 70% improvement, respectively, (Felson et al., 1993). In the data presented herein the CRP blood test is used.
Double-blind, placebo-controlled add on study in subjects with moderately to severely active RA who have an inadequate response to methotrexate (MTX) (oral or parenteral).
595 subjects randomized to one of 6 dose regimens of Compound 1 (dosed as [Compound 1:HCl:3H2O]) (3 dose levels administered either once or twice daily) or placebo on top of each subject's stable dose of MTX.
Compound 1 (dosed as [Compound 1:HCl:3H2O]) is dosed for twelve weeks once daily (q.d.) (50 mg, 100 mg or 200 mg) or twice daily (b.i.d.) (25 mg, 50 mg or 100 mg); or placebo.
At Week 12, the subjects on placebo who have not achieved 20% improvement in swollen joint count (SJC66) and tender joint count (TJC68) are re-randomized automatically to receive Compound 1 (dosed as a [Compound 1:HCl:3H2O]) either at 100 mg q.d. or 50 mg b.i.d. doses in a blinded fashion; subjects on 50 mg q.d. who have not achieved 20% improvement in SJC66 and TJC68 will be assigned to 100 mg q.d. and subjects on 25 mg b.i.d. that have not achieved a 20% improvement in SJC66 and TJC68 will be assigned to 50 mg b.i.d. Subjects who switch treatment at week 12 are handled as if they discontinued at week 12 for the purpose of statistical analysis, whereas subjects in the other groups will maintain their randomized treatment until Week 24.
The American College of Rheumatology (ACR) composite score, which evaluates clinical improvement relative to an initial assessment, is a commonly accepted efficacy end point for clinical trials in patients with rheumatoid arthritis. The ACR score correspond to a percentage improvement in pre-set parameters, and therefore measures the evolution of the disease in a patient. For example, ACR20 denotes at least 20% improvement in tender and swollen joint counts and in three of the following end points: global assessment by the patient, global assessment by the doctor, C reactive protein (CRP), patient's pain Visual Analogue Scale and Health Assessment Questionnaire Score. The number of swollen joints, ESR and CRP correlate with radiographic progression of joint damage, whereas tender joint counts, as well as global assessments by doctors and patients, and patients' reports of pain, are sensitive to change in clinical outcomes. Physical function, as assessed by the Health Assessment Questionnaire Score, is a potent predictor of the risk of disability in rheumatoid arthritis (Felson and American College of Rheumatology Committee to Reevaluate Improvement Criteria, 2007; Felson et al., 1993).
In particular, the list of parameters used to assess ACR score can be found in the Table XCVI below and the results of the ACR responses at week 12 via either NRI or LOCF are shown in the tables below. The Hommel-corrected p-value for the pairwise comparisons of each group with placebo is shown. […]

[1] = 100 mg q.d., week 12, 12 weeks results
[2] = 100 mg q.d., week 12, 24 weeks results
[3] = 100 mg q.d., week 16, 24 weeks results
[4] = 100 mg q.d., week 20, 24 weeks results
[5] = 100 mg q.d., week 24, 24 weeks results
[6] = 100 mg q.d., at week 1, 12 weeks results
[7] = 100 mg q.d., at week 1, 24 weeks results
[8] = 100 mg q.d., week 8, 12 weeks results
[9] = 200 mg q.d., week 2, 12 weeks results
[10] = 200 mg q.d., week 2, 24 weeks results
[11] = 200 mg q.d., week 4, 12 weeks results
[12] = 200 mg q.d., week 4, 24 weeks results
[13] = 200 mg q.d., week 8, 24 weeks results
[14] = 200 mg q.d., week 12, 12 weeks results
[15] = 200 mg q.d., week 12, 24 weeks results
[16] = 200 mg q.d., week 16, 24 weeks results
[17] = 200 mg q.d., week 20, 24 weeks results
[18] = 200 mg q.d., week 24, 24 weeks results
[19] = 200 mg q.d., at week 1, 12 weeks results
[20] = 200 mg q.d., at week 1, 24 weeks results
[21] = 200 mg q.d., week 8, 12 weeks results

Structure (SMILES): O=C(Nc1nc2cccc(-c3ccc(CN4CCS(=O)(=O)CC4)cc3)n2n1)C1CC1 [Compound 1, cyclopropanecarboxylic acid {5-[4-(1,1-dioxo-thiomorpholin-4-ylmethyl)-phenyl]-[1,2,4]triazolo[1,5-a]pyridin-2-yl}-amide]
- ACR70 (LOCF) [1]: 22.4%
- ACR70 (NRI) [1]: 20.0%
- ACR20 (LOCF) [2]: 67.1%
- ACR20 (NRI) [2]: 62.4%
- ACR50 (LOCF) [2]: 41.2%
- ACR50 (NRI) [2]: 38.8%
- ACR70 (LOCF) [2]: 22.4%
- ACR70 (NRI) [2]: 20.0%
- ACR20 (LOCF) [3]: 69.4%
- ACR20 (NRI) [3]: 64.7%
- ACR50 (LOCF) [3]: 55.3%
- ACR70 (LOCF) [3]: 27.1%
- ACR20 (LOCF) [4]: 76.5%
- ACR20 (NRI) [4]: 69.4%
- ACR50 (LOCF) [4]: 50.6%
- ACR70 (LOCF) [4]: 32.9%
- ACR20 (LOCF) [5]: 72.9%
- ACR20 (NRI) [5]: 60.0%
- ACR50 (LOCF) [5]: 54.1%
- ACR70 (LOCF) [5]: 37.6%
- ACR20 (LOCF) [6]: 32.9%
- ACR20 (NRI) [6]: 34.1%
- ACR50 (LOCF) [6]: 5.9%
- ACR50 (NRI) [6]: 5.9%
- ACR70 (LOCF) [6]: 0.0%
- ACR70 (NRI) [6]: 0.0%
- ACR20 (LOCF) [7]: 34.1%
- ACR20 (NRI) [7]: 34.1%
- ACR50 (LOCF) [7]: 5.9%
- ACR50 (NRI) [7]: 5.9%
- ACR70 (LOCF) [7]: 0.0%
- ACR70 (NRI) [7]: 0.00%
- ACR20 (LOCF) [8]: 63.5%
- ACR20 (NRI) [8]: 63.5%
- ACR50 (LOCF) [8]: 35.3%
- ACR50 (NRI) [8]: 34.1%
- ACR70 (LOCF) [8]: 23.5%
- ACR70 (NRI) [8]: 22.4%
- ACR20 (LOCF) [9]: 48.8%
- ACR20 (NRI) [9]: 48.8%
- ACR50 (LOCF) [9]: 11.6%
- ACR50 (NRI) [9]: 11.6%
- ACR70 (LOCF) [9]: 5.8%
- ACR70 (NRI) [9]: 5.8%
- ACR20 (LOCF) [10]: 48.8%
- ACR20 (NRI) [10]: 48.8%
- ACR50 (LOCF) [10]: 11.6%
- ACR50 (NRI) [10]: 11.6%
- ACR70 (LOCF) [10]: 5.8%
- ACR70 (NRI) [10]: 5.8%
- ACR20 (LOCF) [11]: 55.8%
- ACR20 (NRI) [11]: 55.8%
- ACR50 (LOCF) [11]: 16.3%
- ACR50 (NRI) [11]: 17.4%
- ACR70 (LOCF) [11]: 4.7%
- ACR70 (NRI) [11]: 4.7%
- ACR20 (LOCF) [12]: 55.8%
- ACR20 (NRI) [12]: 55.8%
- ACR50 (LOCF) [12]: 17.4%
- ACR50 (NRI) [12]: 17.4%
- ACR70 (LOCF) [12]: 4.7%
- ACR70 (NRI) [12]: 4.7%
- ACR20 (LOCF) [13]: 69.8%
- ACR20 (NRI) [13]: 69.8%
- ACR50 (LOCF) [13]: 34.9%
- ACR50 (NRI) [13]: 34.9%
- ACR70 (LOCF) [13]: 18.6%
- ACR70 (NRI) [13]: 18.6%
- ACR20 (LOCF) [14]: 70.9%
- ACR20 (NRI) [14]: 68.6%
- ACR50 (LOCF) [14]: 44.2%
- ACR50 (NRI) [14]: 43.0%
- ACR70 (LOCF) [14]: 24.4%
- ACR70 (NRI) [14]: 24.4%
- ACR20 (LOCF) [15]: 70.9%
- ACR20 (NRI) [15]: 69.8%
- ACR50 (LOCF) [15]: 44.2%
- ACR50 (NRI) [15]: 43.0%
- ACR70 (LOCF) [15]: 24.4%
- ACR70 (NRI) [15]: 24.4%
- ACR20 (LOCF) [16]: 74.4%
- ACR20 (NRI) [16]: 73.3%
- ACR50 (LOCF) [16]: 50.0%
- ACR70 (LOCF) [16]: 26.7%
- ACR20 (LOCF) [17]: 76.7%
- ACR20 (NRI) [17]: 73.3%
- ACR50 (LOCF) [17]: 54.7%
- ACR70 (LOCF) [17]: 24.4%
- ACR20 (LOCF) [18]: 77.9%
- ACR20 (NRI) [18]: 73.3%
- ACR50 (LOCF) [18]: 54.7%
- ACR70 (LOCF) [18]: 31.4%
- ACR20 (LOCF) [19]: 25.6%
- ACR20 (NRI) [19]: 27.9%
- ACR50 (LOCF) [19]: 4.7%
- ACR50 (NRI) [19]: 4.7%
- ACR70 (LOCF) [19]: 1.2%
- ACR70 (NRI) [19]: 1.2%
- ACR20 (LOCF) [20]: 27.9%
- ACR20 (NRI) [20]: 27.9%
- ACR50 (LOCF) [20]: 4.7%
- ACR50 (NRI) [20]: 4.7%
- ACR70 (LOCF) [20]: 1.2%
- ACR70 (NRI) [20]: 1.2%
- ACR20 (LOCF) [21]: 68.6%
- ACR20 (NRI) [21]: 68.6%
- ACR50 (LOCF) [21]: 33.7%
- ACR50 (NRI) [21]: 33.7%
- ACR70 (LOCF) [21]: 18.6%
